Test results published in patent US20040142979A1, “Heteroarylsulfonylmethyl hydroxamic acids and amides and their use as protease inhibitors” (priority 2002, published 2004).

How the values were obtained:
Assay type in all cases: biochemical
Conditions in all cases: human recombinant enzyme; 4 μM substrate (A); apparent Ki without substrate correction
Human recombinant MMP-2 = molecular target: T1, Human recombinant MMP-2 (Homo sapiens, UniProt P08253); test: In vitro MMP inhibition analysis (fluorogenic peptide substrate), MMP-2
T1 construct: made in house; host or cells: MMP-2-transfected p2AHT2 cells
T1 sequence (P08253 110-660): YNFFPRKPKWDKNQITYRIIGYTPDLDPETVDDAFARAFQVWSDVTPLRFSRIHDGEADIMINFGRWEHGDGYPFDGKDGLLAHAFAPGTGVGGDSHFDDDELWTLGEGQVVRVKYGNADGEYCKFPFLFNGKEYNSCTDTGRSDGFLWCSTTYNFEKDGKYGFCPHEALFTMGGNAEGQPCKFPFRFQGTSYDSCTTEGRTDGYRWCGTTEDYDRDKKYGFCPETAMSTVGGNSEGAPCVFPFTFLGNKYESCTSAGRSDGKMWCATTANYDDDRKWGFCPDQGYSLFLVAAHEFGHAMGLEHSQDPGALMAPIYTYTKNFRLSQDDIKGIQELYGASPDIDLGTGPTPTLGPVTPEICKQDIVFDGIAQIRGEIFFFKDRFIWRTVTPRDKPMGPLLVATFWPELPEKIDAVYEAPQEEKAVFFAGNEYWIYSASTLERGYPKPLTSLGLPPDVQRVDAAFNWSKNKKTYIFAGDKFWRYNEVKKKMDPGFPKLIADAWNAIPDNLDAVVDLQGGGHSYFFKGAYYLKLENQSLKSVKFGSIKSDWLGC
Description: (§1) Several compounds and salts were analyzed in an in vitro assay to determine their ability to inhibit the MMP cleavage of peptide substrates. Inhibition constant (Ki) were calculated from the assayed compound-MMP interactions.
(§2) Human recombinant MMP-1, MMP-2, MMP-9, MMP-13, and MMP-14 were used in this assay. All enzymes were prepared in Assignee's laboratories following usual laboratory procedures. Protocols for the preparation and use of these enzymes are available in the scientific literature. See, e.g., Enzyme Nomenclature (Academic Press, San Diego, Calif., 1992) (and the citations therein). See also, Freije et al., J. Biol. Chem., 269(24), 16766-16773 (1994).
The MMP-2 proenzyme was purified by gelatin Sepharose chromatography from MMP-2- transfected p2AHT2 cells provided by Dr. Gregory Goldberg of Washington University (St. Louis, Mo.).
(§3) All MMPs were activated using 4-aminophenylmercuric acetate (“APMA”, Sigma Chemical, St. Louis, Mo.) or trypsin. MMP-9 also was activated using human recombinant MMP-3 (purified in Assignee's laboratory following standard cloning and purification techniques).
(§4) The following fluorogenic, methoxycoumarin-containing polypeptide substrate (A) was used in the MMP inhibition assays:
(§5) MCA-ArgProLeuGlyLeuDpaAlaArgGluArgNH2 (A)
(§6) “MCA” is 7-methoxycoumarin-4-yl acetyl. Substrate (A) was prepared Assignee's laboratory. In the absence of MMP inhibitory activity, the substrate is cleaved at the Gly-Leu peptide bond. This cleavage separates the highly fluorogenic peptide from the 2,4-dinitrophenyl quencher, thus resulting in increase of fluorescent intensity.
(§7) The stock solutions of the assayed compounds and salts were prepared in 1% dimethyl sulfoxide (DMSO). These stock solutions were diluted in Buffer A (100 mM Tris-HCl, 100 mM NaCl, 10 mM CaCl2, 0.05% polyoxyethylene 23 lauryl ether, pH 7.5) to obtain solutions with different compound concentrations, i.e., assay solutions with different concentrations of the assayed MMP inhibitory compound. The experiment controls contained the same amount of Buffer A/DMSO as the assayed sample, but contained none of the tested compound or salt.
(§8) The assays from which the Ki determinations were made were performed as follows. The assayed compound samples were incubated in separate wells of untreated white polystyrene plates (Nunc Nalgene International, Rochester, N.Y.), and analyzed on a Tecan SpectraFlour Plus plate reader. The excitation wavelength was 330 nm, and the emission wavelength -420 nm. All samples (assayed compounds and controls) were incubated in separate plate wells at room temperature for 1 hr in the presence of 4 μM of MMP substrate (A). In the absence of MMP inhibitory activity, substrate (A) was cleaved at the Gly-Leu bond resulting in an increase of relative fluorescence. Inhibition was observed as a reduced rate of this increase in relative fluorescence. […] This protocol is a modification of method by Knight et al., FEBS Lett., 296(3), 263-266 (1992). Apparent inhibitory constants were determined by non-linear regression of reaction velocity as a function of inhibitor and enzyme concentration using Morrison's equation, as described by Kuzmic, P., et al., Anal. Biochem., 286(1):45-50 (2000). Modifications were made in the non-linear regression method to allow a common control reaction rate and effective enzyme concentration to be shared between all dose-response relationships on a given assay plate. Since the substrate concentration was chosen to be at or below the Km, the apparent Ki's from this analysis were reported as Ki's without correction for the influence of substrate.
(§9) The above protocols were used to determine MMP inhibition Ki constants for the compounds in Examples 1, 2, and 4-42 above. All Ki values in Table 3 are given in nM units.

Human recombinant MMP-9 = molecular target: T2, Human recombinant MMP-9 (Homo sapiens, UniProt P14780); test: In vitro MMP inhibition analysis (fluorogenic peptide substrate), MMP-9
T2 construct: made in house; host or cells: MMP-9-transfected HT1080 cells (spent media)
Description: as §1, §2
The MMP-9 proenzyme was purified by gelatin Sepharose chromatography from spent media of MMP-9-transfected HT1080 cells provided by Dr. Howard Welgus of Washington University (St. Louis, Mo.).
as §3, §4, §5, §6, §7, §8, §9

Human recombinant MMP-1 = molecular target: T3, Human recombinant MMP-1 (Homo sapiens, UniProt P03956); test: In vitro MMP inhibition analysis (fluorogenic peptide substrate), MMP-1
T3 construct: made in house; host or cells: MMP-1-transfected HT-1080 cells (spent media)
T3 sequence (P03956 100-469): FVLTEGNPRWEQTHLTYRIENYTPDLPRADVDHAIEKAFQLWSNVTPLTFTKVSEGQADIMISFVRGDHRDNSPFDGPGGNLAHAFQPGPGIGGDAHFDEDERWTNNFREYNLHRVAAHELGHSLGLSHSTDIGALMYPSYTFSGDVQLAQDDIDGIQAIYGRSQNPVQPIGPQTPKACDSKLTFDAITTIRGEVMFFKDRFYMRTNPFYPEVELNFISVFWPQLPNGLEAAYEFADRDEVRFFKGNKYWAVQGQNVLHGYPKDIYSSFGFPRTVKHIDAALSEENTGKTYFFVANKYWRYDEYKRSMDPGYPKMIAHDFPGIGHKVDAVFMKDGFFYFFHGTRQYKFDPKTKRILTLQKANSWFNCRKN
Description: as §1, §2
The MMP-1 proenzyme was purified from the spent media of MMP-1-transfected HT-1080 cells provided by Dr. Harold Welgus of Washington University (St. Louis, Mo.). The protein was purified on a zinc chelating column.
as §3, §4, §5, §6, §7, §8, §9

T2 sequence (P14780 107-707 limits assumed): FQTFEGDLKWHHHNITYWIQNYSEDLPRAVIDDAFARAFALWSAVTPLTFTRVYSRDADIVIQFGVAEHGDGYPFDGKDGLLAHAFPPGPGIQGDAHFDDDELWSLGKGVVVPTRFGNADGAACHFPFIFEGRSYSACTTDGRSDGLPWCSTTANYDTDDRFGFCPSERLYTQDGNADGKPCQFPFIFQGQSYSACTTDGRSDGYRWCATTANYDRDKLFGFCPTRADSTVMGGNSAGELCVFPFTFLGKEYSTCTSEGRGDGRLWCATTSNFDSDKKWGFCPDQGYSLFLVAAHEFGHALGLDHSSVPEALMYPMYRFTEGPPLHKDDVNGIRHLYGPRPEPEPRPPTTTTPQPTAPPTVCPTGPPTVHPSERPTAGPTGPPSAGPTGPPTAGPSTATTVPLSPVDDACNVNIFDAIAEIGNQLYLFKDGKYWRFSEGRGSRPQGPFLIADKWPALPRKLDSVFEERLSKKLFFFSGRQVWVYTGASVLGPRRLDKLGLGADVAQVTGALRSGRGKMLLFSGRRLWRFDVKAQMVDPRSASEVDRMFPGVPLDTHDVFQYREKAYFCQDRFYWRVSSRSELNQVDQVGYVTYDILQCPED

Row | Structure (SMILES) | Ki (Human recombinant MMP-2) | Ki (Human recombinant MMP-9) | Ki (Human recombinant MMP-1)
1 | COCCN1CCC(C(=O)NO)(S(=O)(=O)c2ccc3nc(-c4ccc(OC(F)(F)F)cc4)sc3c2)CC1 [Example 63] | 2.25 nM | 0.624 nM | 9160 nM
2 | CCCCc1ccc(C(=O)C2CCN(c3nc4ccc(S(=O)(=O)C5(C(=O)NO)CCOCC5)cc4s3)CC2)s1 [Example 52] | 76.3 nM | 837 nM | > 10000 nM
3 | O=C(NO)C1(S(=O)(=O)c2ccc(-c3ccc(OC(F)(F)F)cc3)nc2)CCOCC1 [Example 84] | 0.819 nM | 4.26 nM | 4480 nM
4 | O=C(NO)C1(S(=O)(=O)c2ccc(-c3ccc(OC(F)(F)C(F)F)cc3)nc2)CCOCC1 [Example 47] | 0.274 nM | 1.53 nM | 1490 nM
5 | CC(C)Cc1ncc(-c2nc3ccc(S(=O)(=O)C4(C(=O)NO)CCOCC4)cc3s2)s1 [Example 54] | 35.4 nM | 99 nM | > 10000 nM
6 | O=C(NO)C1(S(=O)(=O)c2ccc3nc(-c4cccc(C(F)(F)F)c4)sc3c2)CCOCC1 [Example 55] | 621 nM | 3310 nM | > 10000 nM
7 | CC(C)CN(C)C(=O)Cc1ccc(-c2ccc(S(=O)(=O)C3(C(=O)NO)CCOCC3)cn2)cc1 [Example 71] | 553 nM | > 10000 nM | > 10000 nM
8 | CCCCOc1ccc(-c2ccc(S(=O)(=O)C3(C(=O)NO)CCOCC3)s2)cc1 [Example 43] | 0.483 nM | 0.806 nM | > 1250 nM
9 | CCCc1ccc(-c2nc3ccc(S(=O)(=O)C4(C(=O)NO)CCOCC4)cc3s2)cc1 [Example 53] | 3.52 nM | 12.8 nM | > 10000 nM
10 | O=C(NO)C1(S(=O)(=O)c2ccc(-c3ccc(OCC(F)(F)F)cc3)nc2)CCOCC1 [Example 46] | 0.367 nM | 0.988 nM | 4340 nM
11 | CCCCN(C)C(=O)Cc1ccc(-c2ccc(S(=O)(=O)C3(C(=O)NO)CCOCC3)cn2)cc1 [Example 74] | 387 nM | 4930 nM | > 10000 nM
12 | CCc1ccc(-c2nc3ccc(S(=O)(=O)C4(C(=O)NO)CCOCC4)cc3s2)cc1 [Example 58] | 1.51 nM | 1.06 nM | > 10000 nM
13 | O=C(NO)C1(S(=O)(=O)c2ccc(-c3ccc(OC(F)(F)C(F)F)cc3)s2)CCOCC1 [Example 44] | 0.173 nM | 0.354 nM | 1120 nM
14 | O=C(NO)C1(S(=O)(=O)c2ccc(-c3ccc(CCC(F)(F)F)cc3)nc2)CCOCC1 [Example 68] | 0.665 nM | 2.82 nM | > 10000 nM
15 | O=C(NO)C1(S(=O)(=O)c2ccc3nc(-c4ccsc4)sc3c2)CCOCC1 [Example 62] | 4.83 nM | 40.5 nM | 2020 nM
16 | CCCCc1ccc(C(=O)C2CCN(c3ccc(S(=O)(=O)C4(C(=O)NO)CCOCC4)cn3)CC2)s1 [Example 70] | 1840 nM | > 10000 nM | > 10000 nM
